Measured values: patent US20210230213A1, “ARAMCHOL SALTS” (GALMED RESEARCH AND DEVELOPMENT LTD., priority 2013, published 2021)
Several values for one entry are separate records, joined by “and”; a condition that tells them apart may be missing. Equal values may be shown once.

Columns and labels:
[1] = Pharmacokinetics of capsules in dogs, single dose and BID (Example 8); conditions: dogs
Protocol: Capsules containing 100 mg of Aramchol were dosed to dogs as either the free acid or the meglumine salt.
The complete data-set across all animals and time-points for each dose form (free acid or meglumine salt) were fit to single compartment PK models with first order rate of absorption Ka (h−1) and elimination parameterised by CL and V (rate of elimination=CL/V, h−1). For the meglumine salt group, the first dose data for M5 was removed.
Capsules containing 100 mg of Aramchol were dosed to dogs as either the free acid or the meglumine salt BID. […] A clinical study that investigated the plasma concentration of Aramchol after oral dosing of 300 mg BID at steady state was conducted in 16 healthy volunteers.

[2] = Mathematical extrapolation of dog data to humans for meglumine salt
[3] = Twice daily administration for 10 days of Aramchol and Aramchol meglumine in humans (Example 9); format: in vivo; conditions: free acid 300 mg, meglumine salt 383 mg
Protocol: 300 mg aramchol free acid were administered to human subjects twice daily, and 383 mg aramchol meglumine salt were administered to human subjects twice daily, as detailed in FIG. 13.

[4] = Fill weight of size 00 HPMC capsule; format: physicochemical; conditions: hard HPMC capsule size 00, filled as is without tapping
Description: Aramchol (free acid), and the three salts were filled as are, into hard HPMC (Hypromellose; Capsule size 00 (CapsCanada, ON, Canada) without taping, fill weight is presented in table 9.

[5] = In vivo permeability / PK after intrajejunal administration in cannulated rats (Example 7); set-up: species or system male Wistar rats; conditions: rat
Protocol: An in vivo permeability study of Aramchol salts was performed in male Wistar rats cannulated in the jugular vein and in the jejunum. Intestinal cannulation was performed in order to bypass protonation of Aramchol salts in acidic gastric pH. Aramchol salts solubilized in PBS (30 mg/mL) were administered to rats intestine (jejunum) in a dose of 100 mg/kg (based on free acid), via a cannula inserted into the proximal side of the jejunum. A suspension of Aramchol free acid (in PBS, 30 mg/mL) was administered via the same route and was used as control. Blood samples were withdrawn via a cannula inserted into jugular vein at pre-determined time points (pre-dose, 1 hr, 2 hr, 4 hr, 8 hr, 12 hr, 24 hr post dose). Plasma concentrations of Aramchol (free acid) were measured using a liquid chromatography-tandem mass spectrometry (LC-MS-MS) method by Analyst Bioanalytical Laboratories, Israel. All PK parameters were calculated using non-compartmental analysis. Only those plasma concentrations equal to or greater than the lower limit of quantitation (LOQ) (48.66 ng/mL) were used in the analysis. Plasma concentrations <LOQ that occurred from pre-dose to the first concentration ≥LOQ were treated as 0. Actual sampling times were used for all pharmacokinetic analyses. The following PK parameters were calculated: maximum plasma concentration (Cmax), time to Cmax (Tmax), area under the plasma concentration-time curve from time of administration until the last plasma concentration (AUC0-4), AUC/dose, elimination half-life (t½). Cmax and Tmax were taken directly from the data. Area under the curve from zero to the final sample with a concentration ≥LOQ. AUC0-4 was calculated using the linear trapezoidal method.

[6] = Bulk and tapped density; format: physicochemical
Description: Measurements of tapped and bulk densities are used to predict the flow properties and compressibility of powders. These two properties are important for manufacture of solid dosage formulations, such as tablets and capsules. Compounds with low values of tapped and bulk densities may be subject to difficulties in tablet compression, and therefore may require additional processing for improving flow properties. […] Therefore, to improve flow properties a wet granulation process is used prior to tablet compression.

[7] = Dynamic Vapour Sorption (DVS); format: physicochemical
Protocol: The samples was weighed in a glass pan, typically 20-30 mg, and equilibrated at 0% relative humidity (RH). After the material had dried, the RH was increased with 10% per step for 1 hour per increment, ending at […].
The software used for data collection was DVSWin v3.01 No Video. Data analysis was performed using DVS Standard Analysis Suite v6.3.0 (Standard).
After completion of sorption cycle, the material was dried. XRPD was performed before and after DVS.

[8] = water
[9] = capsule, Day 1, individual animals, listed as Aramchol meglumine salt
[10] = capsule, Day 1 single dose, Mean
[11] = capsule, Day 11, individual animals, listed as Aramchol meglumine salt
[12] = capsule, Day 11 final dose after BID dosing, Mean
[13] = humans, prediction using % CV 24.3
[14] = 100 mg/kg, mean ± standard error

Question: What does the source list for “3β-arachidylamido-7α,12α-dihydroxy-5β-cholan-24-oic acid N-methylglucamine salt”?
Answer: higher plasma exposure than free acid at the same molar dose [1]: 26%; AUCss ([1]; 100 mg BID capsules, AUC 0-72 h from last administration on day 11, N = 3): 1,143,428 ng*h/mL; Cmax ([1]; capsule 100 mg Aramchol, Day 1 single dose, Mean): 4.88 µg/mL; Cmax ([1]; capsule, Day 1, individual animals (1M-3M free acid, 4M-6M meglumine salt), listed as Aramchol meglumine salt): 5.77 µg/mL and 1.72 µg/mL and 7.16 µg/mL; AUC0-12 [1, 9]: 34.8 µg·h/mL and 3.8 µg·h/mL and 53.2 µg·h/mL; AUCinf [1, 9]: 205 µg·h/mL and 66.9 µg·h/mL and 440 µg·h/mL; Half-life [1, 9]: 19.2 h and 23.1 h and 26.1 h; Tmax [1, 9]: 12 h and 24 h; AUC0-12 [1, 10]: 30.6 µg·h/mL; AUCinf [1, 10]: 237 µg·h/mL; Half-life [1, 10]: 22.8 h; Tmax [1, 10]: 20 h; AUC0-12 [1, 11]: 365 µg·h/mL and 302 µg·h/mL and 315 µg·h/mL; AUCinf [1, 11]: 1600 µg·h/mL and 1150 µg·h/mL and 1590 µg·h/mL; Cmax [1, 11]: 37.6 µg/mL and 38.8 µg/mL and 28.3 µg/mL; Half-life [1, 11]: 29.6 h and 28.9 h and 35.3 h; Tmax [1, 11]: 8 h and 4 h; AUC0-12 [1, 12]: 328 µg·h/mL; AUCinf [1, 12]: 1450 µg·h/mL; Cmax [1, 12]: 34.9 µg/mL; Half-life [1, 12]: 31.3 h; Tmax [1, 12]: 6.67 h; greater exposure using the salt (from model Cl) ([1]; compartmental modelling): 28%; AUCinf from day 11 onwards ([1]; final dose day 11): 1450 µg·h/mL; AUC0-12 D11 ([1]; final dose day 11, steady state): 328 µg·h/mL; AUCinf D1 ([1]; first dose day 1, all animals): 237 µg·h/mL; AUCinf D1 ([1]; first dose day 1, animal 5M (M5) excluded): 323 µg·h/mL; Cl ([1]; single compartment PK model): 320; AUCinf higher than the free acid ([1]; single dose day 1, animal 5M excluded): 34%; AUCss [2]: 144,295 ng*h/mL; AUCss ([2]; embodiment, b22 and b98 say the value pertains to dogs): 144,295 ng*h/mL; maximum plasma exposure [2, 13]: 179.382 µg·h/mL; minimum plasma exposure [2, 13]: 109.208 µg·h/mL; AUCss 0-12 h ([3]; BID for 10 days): 109 µg·h/mL; Cavg ([3]; BID for 10 days, listed as 3β-arachidylamido-7α,12α-dihydroxy-5β-cholan-24-oic acid-meglumine salt): 8,318 ng/ml; Cavg ([3]; BID for 10 days, listed as Aramchol Meglumine): 8318 ng/mL; Cavg ([3]; BID for 10 days, listed as aramchol meglumine salt): 8318 ng/mL; AUCss ([3]; BID): 109,000 ng*h/mL; fill weight of one 00 size capsule [4]: 0.30 gram; increase in Cmax compared to Aramchol free acid [5]: 3.6 fold; Cmax ([5]; 100 mg/kg (based on free acid) in PBS 30 mg/mL, plasma Aramchol (free acid), mean ± standard error): 5012.1 ± 1879.9 (5) ng/mL; AUC(0-t) [5, 14]: 33625.2 ± 9567.7 (5) hr × ng/mL; AUC/dose [5, 14]: 331.7 ± 82.5 (5) hr × ng × kg/mL × mg; t1/2 [5, 14]: 5.2 ± 1.0 (5) hr; Tmax ([5]; 100 mg/kg, median): 4.0 (5) [2-4] hr; Bulk density [6]: 0.57 g/mL; Tapped density [6]: 0.66 g/mL; total mass uptake (DVS) ([7]; Example 4 material, sorption to 95% RH, […]): 16%; Mass uptake (DVS) ([7]; RH raised from 0% in 10% steps to 95% RH, stepwise, reversible): 14.9% (stepwise; reversible); Dissolved (50 in g in 1) at 50° C. ([8]; Aramchol free acid and base 1:1, 50° C.): Yes; salt remains in solution after cooling to 20° C. ([8]; cooled to 20° C.): no
